Experimental data published in patent US20070270612A1, “Biocidal azole emulsion concentrates having high active ingredient content” (priority 2006, published 2007).
Read-outs that look alike come from different tables or passages of the source.

Columns and labels:
[1] = Solubility of biocides in solvents; assay type: physicochemical
From the text: For example, Arch Wood Protection recently received US EPA registration on an end use wood preservative product having 5.0% tebuconazole, 5.0% propiconazole, 0.5% imidacloprid, and 89.5% inert ingredients (surfactants, etc). This is near the solubility limit of the carrier, that is, very little additional biocidal azole can be dissolved in that material. This is about 20 parts biocidal azoles per part of imidacloprid. Other commercially importants formulations include tebuconazole and imidacloprid in a ratio of about 50 parts to 1 part by weight, and 4 parts biocidal azoles (tebuconazole and propiconazole) per part by weight of permethin. In contrast, an exemplary formulation of the present invention comprises 15.0% tebuconazole (range 1-35%, preferably 5-20%), 15.0% propiconazole (range 1-40%, preferably 5-20%), 1.5% imidacloprid (range 0.2%-3%), 5.0% of an emulsifier blend (range 1-15%), 60.0% of a basic solvent such as N,N-dimethyldecanamide/octanamide (range 0.0-65%), and 3.5% N-methyl pyrrolidone (range 0.0-50%). The alkyl pyrrolidones can be included in component (A) compounds if an organic biocide is particularly difficult to dissolve.
Other biocides which could be used in this invention include those in the azole family and other organic molecules in general (fungicides and insecticides) that are applicable to wood preservation. These could be combined in any number of mixtures and variations, including two-ways, four-ways, etc. or alone. A large number of surfactants that can be used as emulsifier components to make an EC. It really comes down to the formulator's preference. Similarly, there are many other solvents that could be used to dissolve these active ingredients and make an EC or microemulsion from an emulsion concentrate (MEC). When the compositions are diluted and undergo sufficient shear to form a microemulsion, the resultant microemulsion is stable at all reasonably useful levels of water dilution and remain thermodynamically stable and clear, opalescent, or only slightly cloudy. […]

[2] = Particle size distribution on wet ball milling with 0.3 mm zirconia; assay type: physicochemical
From the text: Milling tebuconazole with 0.3 mm zirconium oxide milling material. Tebuconazole is a preferred organic biocide for use in wood and also for selected foliar applications and for incorporation into biocidal materials. […] Exemplary other preferred biocides from the same class of material include cyproconazole, tetraconazole, difenoconazole, diniconazole, penconazole, imibenconazole, propiconazole, azaconazole, and epoxyconazole. […] A CB Mills Vertical Mill Model: L-1 mill was used in this experiment. […] The original d50 (the diameter at which 50% by weight of the particles have an effective diameter equal to or less than the d50) of the tebuconazole, prior to wet milling, was about 25 microns, with about a fourth of the tebuconazole in particles […] having a particle size less than 4 microns. The milling media was 0.3-0.5 mm Yttrium doped Zirconium Oxide. The density of the yttrium-doped zirconium oxide is ˜6.0 g/cm^3. […] Generally, for injecting into wood, we prefer less than 2% by weight of particles have a diameter greater than 1 micron, more preferably 0.7 microns. The residual large particles can be separated from the slurry by centrifugation and then be sent back to the mill for additional milling.

CC(C)(C)C(O)(CCc1ccc(Cl)cc1)Cn1cncn1 (stereo not drawn) [Tebuconazole]
solubility in N,N-dimethylcapramide [1]: very soluble | Volume % With Diameter 1-10 μm ([2]; milling time 0 mins): 4 Volume % | Volume % With Diameter 10-25 μm ([2]; milling time 0 mins): 42.2 Volume % | Volume % With Diameter 25-50 μm ([2]; milling time 0 mins): 27.2 Volume % | Volume % With Diameter >50 μm ([2]; milling time 0 mins): 26.6 Volume % | Volume % With Diameter 0.2-1 μm ([2]; milling time 150 mins): 20.7 Volume % | Volume % With Diameter 1-10 μm ([2]; milling time 150 mins): 4.2 Volume % | Volume % With Diameter 10-25 μm ([2]; milling time 150 mins): 3.6 Volume % | Volume % With Diameter 25-50 μm ([2]; milling time 150 mins): 0 Volume % | Volume % With Diameter <0.2 μm ([2]; milling time 150 mins): 71.5 Volume % | Volume % With Diameter >50 μm ([2]; milling time 150 mins): 0 Volume % | d50 ([2]; prior to wet milling): about 25 microns | weight % having a particle size less than 4 microns ([2]; prior to wet milling): about 4 % by weight

CCCC1COC(Cn2cncn2)(c2ccc(Cl)cc2Cl)O1 (stereo not drawn) [propiconazole]
solubility in N,N-dimethylcapramide ([1]; solvent N,N-DMC): very soluble

O=[N+]([O-])NC1=NCCN1Cc1ccc(Cl)nc1 [Imidacloprid]
solubility in most every EPA approved solvent [1]: sparingly soluble
